Test results taken from ChEMBL document CHEMBL3352591, “Total synthesis of clavatadine A” (J Nat Prod, 2015).

Target: Coagulation factor XI (Homo sapiens, UniProt P03951)
Assay: Inhibition of human coagulation factor 11a pre-incubated for 15 mins before substrate S2366 addition and measured after 2 hrs post substrate addition

Coagulation factor XI, sequence (P03951 19-387 limits assumed): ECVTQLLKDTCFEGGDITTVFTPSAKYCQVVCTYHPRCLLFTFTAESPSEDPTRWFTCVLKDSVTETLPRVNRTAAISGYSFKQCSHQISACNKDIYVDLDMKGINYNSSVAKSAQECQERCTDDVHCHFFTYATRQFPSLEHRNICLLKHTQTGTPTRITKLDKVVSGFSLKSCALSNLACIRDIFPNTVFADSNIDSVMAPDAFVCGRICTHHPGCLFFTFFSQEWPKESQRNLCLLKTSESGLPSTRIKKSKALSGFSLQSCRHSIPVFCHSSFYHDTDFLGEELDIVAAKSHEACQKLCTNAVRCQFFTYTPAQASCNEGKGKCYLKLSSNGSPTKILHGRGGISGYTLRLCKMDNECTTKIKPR
Coagulation factor XI, sequence (P03951 388-625 limits assumed): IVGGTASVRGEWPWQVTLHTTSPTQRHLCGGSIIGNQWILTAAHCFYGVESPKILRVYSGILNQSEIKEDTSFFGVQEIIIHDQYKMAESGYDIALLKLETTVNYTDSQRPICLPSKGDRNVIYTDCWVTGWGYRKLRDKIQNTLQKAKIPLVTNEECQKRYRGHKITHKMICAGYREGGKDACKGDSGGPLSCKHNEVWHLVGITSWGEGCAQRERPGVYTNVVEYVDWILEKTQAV

N=C(N)NCCCCNC(=O)Oc1c(Br)cc(O)c(CC(=O)O)c1Br
IC50: 6.3 µM
